29 compounds from patent US11304929B2, “Tosylacetate based compounds and derivatives thereof as PHGDH inhibitors” (priority 2017, dated 2022) can be followed below.

For this assay, the target named is PHGDH (Homo sapiens (Human), UniProt O43175). The experiment in a line: 3-Phosphoglycerate Dehydrogenase (PHGDH) Fluorescence Intensity Assay, run at two NAD/3-PG ratios: PHGDH_HIGH_NAD/3-PG (250 μM NAD/500 μM 3-PG) and PHGDH_500_NAD/3-PG (500 μM NAD/500 μM 3-PG). It counts as biochemical.
The mark [1] stands for this setting: 250 μM NAD/500 μM 3-PG, read-out: IC50 (PHGDH_HIGH_NAD/3-PG).
The mark [2] stands for this setting: 500 μM NAD/500 μM 3-PG, read-out: IC50 (PHGDH_500_NAD/3-PG).

Read-outs that look alike come from different tables or passages of the source. Bounds are passed on as bounds.

PHGDH, sequence (O43175 2-533 limits assumed): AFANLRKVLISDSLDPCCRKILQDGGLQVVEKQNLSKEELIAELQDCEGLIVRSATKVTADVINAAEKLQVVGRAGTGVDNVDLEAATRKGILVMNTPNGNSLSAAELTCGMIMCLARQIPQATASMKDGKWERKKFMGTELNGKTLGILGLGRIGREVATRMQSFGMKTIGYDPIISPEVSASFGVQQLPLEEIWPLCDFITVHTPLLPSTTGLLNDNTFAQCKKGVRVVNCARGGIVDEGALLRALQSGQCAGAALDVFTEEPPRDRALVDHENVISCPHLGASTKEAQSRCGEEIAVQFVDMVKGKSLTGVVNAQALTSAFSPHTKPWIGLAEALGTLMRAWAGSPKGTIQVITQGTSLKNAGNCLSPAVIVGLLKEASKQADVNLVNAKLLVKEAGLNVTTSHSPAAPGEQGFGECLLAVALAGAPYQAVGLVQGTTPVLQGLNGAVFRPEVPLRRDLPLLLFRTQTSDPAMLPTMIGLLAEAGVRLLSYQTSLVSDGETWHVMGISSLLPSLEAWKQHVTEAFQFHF

Turning to `CC(C)OC(=O)CS(=O)(=O)c1ccc([C@@H](C)NC(=O)c2cc(-c3ccc(F)c(F)c3)nn2C)cc1` [Example 02-016, propan-2-yl 2-{4-[(1R)-1-{[3-(3,4-difluorophenyl)-1-methyl-1H-pyrazol-5-yl]formamido}ethyl]benzenesulfonyl}acetate], the IC50 under setting [1] was more than 20000 nM.
On the same count and under the same terms, to `CC(C)OC(=O)CS(=O)(=O)c1ccc([C@@H](CO)NC(=O)c2cc(-c3ccc(F)cc3)nn2C)cc1` [Example 02-017, propan-2-yl 2-{4-[(1S)-1-{[3-(4-fluorophenyl)-1-methyl-1H-pyrazol-5-yl]formamido}-2-hydroxyethyl]benzenesulfonyl}acetate] belongs 7710 nM.
`Cc1cc(Cl)c2cc(C(=O)N[C@H](C)c3ccc(S(=O)(=O)CC(=O)O)cc3)n(C)c2c1C` [Example 03-003, 2-{4-[(1R)-1-[(4-chloro-1,6,7-trimethyl-1H-indol-2-yl)formamido]ethyl]benzenesulfonyl}acetic acid]: the IC50 under setting [1] came to 13 nM and the IC50 under setting [2] is 22 nM.
In the case of `C[C@@H](NC(=O)c1cc2c(Cl)cc(-c3cnn(C)c3)cc2n1C)c1ccc(S(=O)(=O)CC(=O)O)cc1` [Example 03-004, 2-{4-[(1R)-1-{[4-chloro-1-methyl-6-(1-methyl-1H-pyrazol-4-yl)-1H-indol-2-yl]formamido}ethyl]benzenesulfonyl}acetic acid], the IC50 under setting [1] stood at 20 nM and the IC50 under setting [2] is 29 nM.
On to `C#Cc1cc(Cl)c2cc(C(=O)NC(C)c3ccc(S(=O)(=O)CC(=O)O)cc3)n(C)c2c1` (centres unmarked) [Example 03-007, 2-(4-{1-[(4-chloro-6-ethynyl-1-methyl-1H-indol-2-yl)formamido]ethyl}benzenesulfonyl)acetic acid], for which, under setting [1], the IC50 was found to be 29 nM.
Same read-out and setting: as for `CC(NC(=O)c1cc2c(Cl)cc(I)cc2n1C)c1ccc(S(=O)(=O)CC(=O)O)cc1` (centres unmarked) [Example 03-008, 2-(4-{1-[(4-chloro-6-iodo-1-methyl-1H-indol-2-yl)formamido]ethyl}benzenesulfonyl)acetic acid], the figure is 24 nM; as for `Cc1nc2c(cc(C(=O)N[C@H](C)c3ccc(S(=O)(=O)CC(=O)O)cc3)n2C)c(Cl)c1Cl` [Example 03-010, 2-{4-[(1R)-1-({4,5-dichloro-1,6-dimethyl-1H-pyrrolo[2,3-b]pyridin-2-yl}formamido)ethyl]benzenesulfonyl}acetic acid], 170 nM.
As for `Cc1cc2c(cc(C(=O)N[C@H](CO)c3ccc(S(=O)(=O)CC(=O)O)cc3)n2C)c(F)c1F` [Example 03-012, 2-{4-[(1S)-1-[(4,5-difluoro-1,6-dimethyl-1H-indol-2-yl)formamido]-2-hydroxyethyl]benzenesulfonyl}acetic acid], the IC50 turned out to be 8 nM under setting [1] and 17 nM under setting [2].
Consider `Cc1cc(Cl)c2cc(C(=O)N[C@H](CO)c3ccc(S(=O)(=O)CC(=O)O)cc3)n(C)c2n1` [Example 03-013, 2-{4-[(1S)-1-({4-chloro-1,6-dimethyl-1H-pyrrolo[2,3-b]pyridin-2-yl}formamido)-2-hydroxyethyl]benzenesulfonyl}acetic acid], for which the IC50 under setting [1] came out at 35 nM.
Consider `Cc1cc2c(cc(C(=O)N[C@H](C)c3ccc(S(=O)(=O)CC(=O)O)cc3)n2C)c(Cl)c1F` [Example 03-014, 2-{4-[(1R)-1-[(4-chloro-5-fluoro-1,6-dimethyl-1H-indol-2-yl)formamido]ethyl]benzenesulfonyl}acetic acid], for which the IC50 is, setting by setting: under setting [1], 5 nM; under setting [2], 7 nM.
Turning to `Cc1cc(Cl)c2cc(C(=O)N[C@H](C)c3ccc(S(=O)(=O)CC(=O)O)cc3)n(C)c2n1` [Example 03-015, 2-{4-[(1R)-1-({4-chloro-1,6-dimethyl-1H-pyrrolo[2,3-b]pyridin-2-yl}formamido)ethyl]benzenesulfonyl}acetic acid], the IC50 under setting [1] came out at 41 nM.
In the case of `Cc1cc2c(cc(C(=O)N[C@H](CO)c3ccc(S(=O)(=O)CC(=O)O)cc3)n2C)c(Cl)c1F` [Example 03-016, 2-{4-[(1S)-1-[(4-chloro-5-fluoro-1,6-dimethyl-1H-indol-2-yl)formamido]-2-hydroxyethyl]benzenesulfonyl}acetic acid], the IC50 under setting [1] worked out at 5 nM and the IC50 under setting [2] turned out to be 7 nM.
`CN1CCN(c2cc(Cl)c3cc(C(=O)N[C@H](CO)c4ccc(S(=O)(=O)CC(=O)O)cc4)n(C)c3c2)CC1` [Example 03-017, 2-{4-[(1S)-1-{[4-chloro-1-methyl-6-(4-methylpiperazin-1-yl)-1H-indol-2-yl]formamido}-2-hydroxyethyl]benzenesulfonyl}acetic acid]: the IC50 runs as follows: under setting [1], 40 nM; under setting [2], 146 nM.
The like results for `C[C@@H](NC(=O)c1cc2c(Cl)cc(N3CCN(C)CC3)cc2n1C)c1ccc(S(=O)(=O)CC(=O)O)cc1` [Example 03-018, 2-{4-[(1R)-1-{[4-chloro-1-methyl-6-(4-methylpiperazin-1-yl)-1H-indol-2-yl]formamido}ethyl]benzenesulfonyl}acetic acid] were, in that order, 84 nM and 292 nM.
For the compound `C[C@@H](NC(=O)c1cc(-c2ccccc2)nn1C)c1ccc(S(=O)(=O)CC(=O)O)cc1` [Example 04-001, 2-{4-[(1R)-1-[(1-methyl-3-phenyl-1H-pyrazol-5-yl)formamido]ethyl]benzenesulfonyl}acetic acid], the IC50 under setting [1] is 145 nM.
On the same count and under the same terms, to `C[C@@H](NC(=O)c1cc(-c2ccc(F)cc2)nn1C)c1ccc(S(=O)(=O)CC(=O)O)cc1` [Example 04-002, 2-{4-[(1R)-1-{[3-(4-fluorophenyl)-1-methyl-1H-pyrazol-5-yl]formamido}ethyl]benzenesulfonyl}acetic acid] belongs 76 nM.
Regarding `C[C@@H](NC(=O)c1cc(-c2cccc3cc[nH]c23)nn1C)c1ccc(S(=O)(=O)CC(=O)O)cc1` [Example 04-003, 2-{4-[(1R)-1-{[3-(1H-indol-7-yl)-1-methyl-1H-pyrazol-5-yl]formamido}ethyl]benzenesulfonyl}acetic acid], the IC50 is, setting by setting: under setting [1], 53 nM; under setting [2], 87 nM.
The like results for `Cn1nc(-c2ccc(F)cc2)cc1C(=O)N[C@H](CO)c1ccc(S(=O)(=O)CC(=O)O)cc1` [Example 04-004, 2-{4-[(1S)-1-{[3-(4-fluorophenyl)-1-methyl-1H-pyrazol-5-yl]formamido}-2-hydroxyethyl]benzenesulfonyl}acetic acid] were, in that order, 174 nM and 299 nM.
As for `COC(=O)C(C)(C)S(=O)(=O)c1ccc([C@@H](C)NC(=O)c2cc3cc(Cl)ccc3n2C)cc1` [Example 05-002, methyl 2-{4-[(1R)-1-[(5-chloro-1-methyl-1H-indol-2-yl)formamido]ethyl]benzenesulfonyl}-2-methylpropanoate], under setting [1], the IC50 amounted to 33100 nM.
The same measure, in the same setting: to `COC(=O)C(C)S(=O)(=O)c1ccc([C@@H](C)NC(=O)c2cc3cc(Cl)ccc3n2C)cc1` (stereo partly drawn) [Example 05-006, methyl 2-{4-[(1R)-1-[(5-chloro-1-methyl-1H-indol-2-yl)formamido]ethyl]benzenesulfonyl}propanoate] belongs 3050 nM; to `COC(=O)C(C)(C)S(=O)(=O)c1ccc([C@@H](C)NC(=O)c2cc3c(Cl)cc(C)cc3n2C)cc1` [Example 05-007, methyl 2-{4-[(1R)-1-[(4-chloro-1,6-dimethyl-1H-indol-2-yl)formamido]ethyl]benzenesulfonyl}-2-methylpropanoate], 4520 nM.
For `COC(=O)C1(S(=O)(=O)c2ccc([C@@H](C)NC(=O)c3cc4c(Cl)cc(C)cc4n3C)cc2)CCCC1` [Example 05-008, methyl 1-{4-[(1R)-1-[(4-chloro-1,6-dimethyl-1H-indol-2-yl)formamido]ethyl]benzenesulfonyl}cyclopentane-1-carboxylate], under setting [1], the IC50 is 18300 nM.
For `CCCC(C(=O)OC)S(=O)(=O)c1ccc([C@@H](C)NC(=O)c2cc3c(Cl)cc(C)cc3n2C)cc1` (stereo partly drawn) [Example 05-015, methyl 2-{4-[(1R)-1-[(4-chloro-1,6-dimethyl-1H-indol-2-yl)formamido]ethyl]benzenesulfonyl}pentanoate], the IC50 under setting [1] was determined as 3470 nM.
Still for that read-out and setting: as for `CCOC(=O)C(C)(C)S(=O)(=O)c1ccc([C@@H](C)NC(=O)c2cc3c(Cl)c(Cl)c(C)nc3n2C)cc1` [Example 05-016, ethyl 2-{4-[(1R)-1-({4,5-dichloro-1,6-dimethyl-1H-pyrrolo[2,3-b]pyridin-2-yl}formamido)ethyl]benzenesulfonyl}-2-methylpropanoate], the figure is more than 100000 nM; as for `COC(=O)C(C)(C)S(=O)(=O)c1ccc([C@@H](C)NC(=O)c2cc3c(Cl)c(Cl)c(C)nc3n2C)cc1` [Example 05-020, methyl 2-{4-[(1R)-1-({4,5-dichloro-1,6-dimethyl-1H-pyrrolo[2,3-b]pyridin-2-yl}formamido)ethyl]benzenesulfonyl}-2-methylpropanoate], more than 20000 nM.
As for `COC(=O)C1(S(=O)(=O)c2ccc([C@@H](CO)NC(=O)c3cc4c(Cl)cc(C)cc4n3C)cc2)CCOCC1` [Example 05-021, methyl 4-{4-[(1S)-1-[(4-chloro-1,6-dimethyl-1H-indol-2-yl)formamido]-2-hydroxyethyl]benzenesulfonyl}oxane-4-carboxylate], the IC50 under setting [1] came to 2450 nM.
The same measure, in the same setting: to `COC(=O)C(C)(C)S(=O)(=O)c1ccc([C@@H](C)NC(=O)c2cc3c(Cl)c(Cl)c(C)cc3n2C)cc1` [Example 05-022, methyl 2-{4-[(1R)-1-[(4,5-dichloro-1,6-dimethyl-1H-indol-2-yl)formamido]ethyl]benzenesulfonyl}-2-methylpropanoate] belongs 5580 nM.
As to `Cc1cc2c(cc(C(=O)N[C@H](C)c3ccc(S(=O)(=O)C4CCOC4=O)cc3)n2C)c(Cl)c1Cl` (stereo partly drawn) [Example 05-023, 4,5-dichloro-1,6-dimethyl-N-[(1R)-1-{4-[(2-oxooxolan-3-yl)sulfonyl]phenyl}ethyl]-1H-indole-2-carboxamide], the IC50 under setting [2] came out at 119 nM.
With `Cc1cc2c(cc(C(=O)N[C@H](C)c3ccc(S(=O)(=O)C4CCOC4=O)cc3)n2C)c(F)c1F` (stereo partly drawn) [Example 05-024, 4,5-difluoro-1,6-dimethyl-N-[(1R)-1-{4-[(2-oxooxolan-3-yl)sulfonyl]phenyl}ethyl]-1H-indole-2-carboxamide], the IC50 under setting [2] came out at 119 nM.
